Consider 3 molecules from article PMC5863515, “Re-evaluation of Adrenocorticotropic Hormone and Melanocyte Stimulating Hormone Activation of GPR139 in Vitro” (Frontiers in Pharmacology, 2018).

One test addresses T1, MC4R (Homo sapiens, UniProt P32245).
T1 construct: expressed in transfected cells; host or cells: HEK-293, pCIneo, transient (FuGene HD)
The experiment in a line: Calcium mobilization, HEK-293 transiently expressing MC4R. Format: cell-based. How it is done:
(§1) Human MC3R (NM_019888), MC4R (NM_005912), and MC5R (NM_005913) were transiently expressed in HEK-293 cells with and without human GPR139 (KR081941) or the chimeric G-protein Gα16. All genes were cloned into pCIneo (Promega, Madison, WI, United States, #E1841). HEK-293 cells were cultured in DMEM/F12 (Gibco, Grand Island, NY, United States, #11039-021), 10% FBS (Hyclone, Logan, UT, United States, # SH300700.03), 50 units/ml penicillin and 50 μg/ml streptomycin (Mediatech, Manassas, VA, United States, #30-001-CI). Cells were seeded at 4 × 10^6 cells in 10 cm dishes and allowed to grow overnight at 37°C, 5% CO2. On the day of transfection, culture media was replaced with F12-K (Mediatech, Manassas, VA, United States, #10-025-CV), 10% FBS, 20 mM HEPES (Hyclone, Logan, UT, United States, #SH30237.01) and transfected with 15 μg DNA (10 μg MCR:5 μg pCIneo, 10 μg MCR:5 μg Gα16 or 7.5 μg MCR:7.5 μg GPR139) using FuGene HD (Promega, Madison, WI, United States, #E2311) according to manufacturer’s instructions. MC3R, MC4R, and MC5R were also transiently expressed in the following GPR139 stably expressing cell lines using the FuGENE HD method: HEK-293 GPR139 clone#33, CHO-TREx GPR139 clone#18, and SK-N-MC/CRE TREx GPR139 clone#35. Stable cell lines were established according to method previously described ([Liu et al., 2015]).
(§2) Intracellular calcium mobilization was measured with the BD calcium kit (BD Bioscience, San Jose, CA, United States). The recombinant cell lines expressing MC3R, MC4R, and MC5R with and without GPR139 or Gα16 were seeded in culture media at a density of 50,000 cells/well into 96-well black/clear-bottom poly-D-lysine treated tissue culture plates. Cells were incubated overnight at 37°C and 5% CO2. Next day, culture media was removed and cells were washed with HBSS prior to dye-loading for 1 h at 37°C and 5% CO2. Agonist stimulation and intracellular calcium measurements were done on the FLIPR Tetra (Molecular Devices, Sunnyvale, CA, United States). For receptor inhibition analysis, antagonists (1 μM HS-024 or 10 μM JNJ-3792165) were added off-line 15 min prior to agonist addition on the Tetra. For G-protein inhibitor experiments, cells were treated with 1 μM YM-254890 for 5 min prior to agonist additions on the Tetra. […] Responses in Figure 6 were normalized to its respective agonist response without antagonist. EC50s were calculated by fitting a three-parameter logistic curve using least-squares non-linear regression analysis as implemented in Graphpad Prism 7.0.
On the technique in general: Calcium assays in cells follow changes in intracellular calcium, usually with a dye or a luminescent sensor.

A further test concerns the target MC4R + Gα16 (Homo sapiens, UniProt P32245). Description: Calcium mobilization, HEK-293 transiently expressing MC4R + Gα16. The format is cell-based. The arrangement: expressed in transfected cells; host or cells: HEK-293, pCIneo, transient (10 μg MCR:5 μg Gα16). How it is done:
as §1
(§3) Intracellular calcium mobilization was measured with the BD calcium kit (BD Bioscience, San Jose, CA, United States). The recombinant cell lines expressing MC3R, MC4R, and MC5R with and without GPR139 or Gα16 were seeded in culture media at a density of 50,000 cells/well into 96-well black/clear-bottom poly-D-lysine treated tissue culture plates. Cells were incubated overnight at 37°C and 5% CO2. Next day, culture media was removed and cells were washed with HBSS prior to dye-loading for 1 h at 37°C and 5% CO2. […] EC50s were calculated by fitting a three-parameter logistic curve using least-squares non-linear regression analysis as implemented in Graphpad Prism 7.0.

For test [1], the target named is T2, GPR139 (Homo sapiens, UniProt Q6DWJ6).
T2 sequence (Q6DWJ6 1-353): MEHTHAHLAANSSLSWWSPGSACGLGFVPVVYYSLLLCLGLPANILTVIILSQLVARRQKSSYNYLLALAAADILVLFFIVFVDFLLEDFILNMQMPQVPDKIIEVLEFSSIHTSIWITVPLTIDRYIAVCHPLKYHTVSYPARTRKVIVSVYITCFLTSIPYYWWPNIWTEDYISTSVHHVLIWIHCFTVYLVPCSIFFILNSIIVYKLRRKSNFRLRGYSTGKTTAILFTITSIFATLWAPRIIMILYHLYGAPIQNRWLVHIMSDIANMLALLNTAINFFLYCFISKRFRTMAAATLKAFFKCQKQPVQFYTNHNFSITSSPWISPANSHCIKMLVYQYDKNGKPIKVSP
Further details: expressed in transfected cells; host or cells: CHO-TREx GPR139 clone#18; method as in Liu et al., 2015. Particulars: used for Cheng-Prussoff; ref Liu et al., 2015; read-out: Kd of [3H]JNJ-63533054; cited from earlier work.

Test [2] concerns the target T2, GPR139. The arrangement: method as in Shehata et al. (2016). Particulars: ref Shehata et al. (2016); cited from earlier work.
Test [3] addresses T2, GPR139. Description: Calcium mobilization, HEK-293 cells stably expressing human GPR139. Format: cell-based. The arrangement: expressed in transfected cells. On the procedure:
as §1, §2

For test [4], the target named is T2, GPR139. Description: cAMP assay. The format is cell-based. Conditions: unpublished data. A general note: Cyclic AMP is a second messenger, typically raised through Gs and lowered through Gi signalling.
The next test has as its target T3, MC3R (Homo sapiens, UniProt P41968).
T3 construct: expressed in transfected cells; host or cells: HEK-293, pCIneo, transient (FuGene HD)
Description: Calcium mobilization, HEK-293 transiently expressing MC3R. The format is cell-based. On the procedure:
as §1, §3

Test [5] concerns the target T2, GPR139. The experiment in a line: [35S]-GTPγS binding assay, membranes of CHO-TREx cells stably expressing GPR139. The arrangement: expressed in transfected cells; host or cells: CHO-TREx GPR139 clone#18. Conditions: for Stimulation of [35S]-GTPγS incorporation after pertussis toxin treatment: 100 ng/ml pertussis toxin overnight; for Stimulation of [35S]-GTPγS incorporation after pertussis toxin treatment / Effect of YM-254890 on agonist [35S]-GTPγS response: data not shown; for Effect of YM-254890 on agonist [35S]-GTPγS response: 1 μM YM-254890 (Gq inhibitor); for EC50: CHO-TREx GPR139 membranes, mean ± SEM, read-out: pEC50, [35S]-GTPγS binding (converted). Format: biochemical. On the procedure:
For G-protein inhibitor experiments, CHO-TRex cells stably expressing GPR139 were treated with 100 ng/ml pertussis toxin (Gi/o inhibitor) overnight prior to harvesting cells for membrane preparations. […] Reactions were terminated by rapid filtration through GF/C filterplates (Perkin-Elmer, Waltham, MA, United States) on a Cell Harvester (Perkin-Elmer, Waltham, MA, United States). Filterplates were washed three times with ice-cold wash buffer (50 mM Tris, 5 mM MgCl2) and Microscint-40 was added to each well. Bound radioactivity was measured on a Topcount scintillation counter (Perkin-Elmer, Waltham, MA, United States). […] EC50s were calculated by modeling the response associated with the logarithm of concentration as a three-parameter logistic curve with the Bottom plateau parameter fixed at 0. The fit was obtained using least-squares non-linear regression as implemented in GraphPad Prism 7.0.
(In general: GTPγS resists hydrolysis and so accumulates on activated G proteins.)

Test [6] deals with T2, GPR139. Further details: method as in Liu et al., 2015. Conditions: ref Liu et al., 2015; cited from earlier work.
Setting [7] is: HEK-293 transient, read-out: Agonist potency (pEC50), MC4R (converted).
Setting [8] is: HEK-293 transient, read-out: Agonist potency (pEC50), MC4R + Gα16 (converted).
[9] abbreviates: HEK-293 stable GPR139, read-out: pEC50, calcium mobilization (converted).
The mark [10] stands for this setting: HEK-293 transient, read-out: Agonist potency (pEC50), MC3R (converted).

A word on the Kd: it is a measure of binding affinity in units of concentration.

Each structure is given as a SMILES string. Where two headings read alike, the source gives them in different places.

T1 sequence (P32245 whole entry): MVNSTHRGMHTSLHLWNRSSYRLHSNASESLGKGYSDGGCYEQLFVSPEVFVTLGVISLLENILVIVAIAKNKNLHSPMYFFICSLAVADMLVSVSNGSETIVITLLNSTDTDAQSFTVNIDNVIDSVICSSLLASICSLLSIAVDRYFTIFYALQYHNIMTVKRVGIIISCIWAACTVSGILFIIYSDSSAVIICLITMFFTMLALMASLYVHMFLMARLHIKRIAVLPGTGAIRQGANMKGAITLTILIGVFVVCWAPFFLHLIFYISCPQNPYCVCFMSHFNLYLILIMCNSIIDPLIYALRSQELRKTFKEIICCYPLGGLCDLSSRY
Chain of MC4R + Gα16 (P32245 whole entry): as above
T3 sequence (P41968 whole entry): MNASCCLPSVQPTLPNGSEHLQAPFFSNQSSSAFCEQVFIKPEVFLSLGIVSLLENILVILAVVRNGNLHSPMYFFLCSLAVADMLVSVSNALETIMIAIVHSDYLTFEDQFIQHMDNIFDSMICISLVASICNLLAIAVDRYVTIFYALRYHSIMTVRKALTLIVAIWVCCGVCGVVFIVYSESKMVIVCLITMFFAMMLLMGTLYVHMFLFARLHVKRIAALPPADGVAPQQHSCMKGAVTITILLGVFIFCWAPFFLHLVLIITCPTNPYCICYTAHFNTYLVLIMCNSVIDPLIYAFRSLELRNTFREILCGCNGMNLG

Regarding `C[C@H](NC(=O)CNC(=O)c1cccc(Cl)c1)c1ccccc1` [JNJ-63533054, 3-chloro-N-[2-oxo-2-[[(1S)-1-phenylethyl]amino]ethyl]benzamide], the EC50 was greater than 10 µM at MC4R (setting [7]); greater than 10 µM on MC4R + Gα16 (setting [8]); 0.0214 µM at GPR139 [3] (setting [9]); greater than 10 µM on MC3R (setting [10]); 0.0646 µM at GPR139 [5]. In addition, on GPR139 [1], the Kd was 0.01 µM. For the same molecule, on GPR139 [2], the cAMP response result is given as “unable to induce or inhibit a cAMP response”. On GPR139 [4], the “Response in a cAMP assay” value was “unable to detect a response”. The “Stimulation of [35S]-GTPγS incorporation after pertussis toxin treatment” value (“Stimulation of [35S]-GTPγS incorporation” below) at GPR139 [5] was “did not stimulate”. For the same molecule, on GPR139 [5], the “Effect of YM-254890 on agonist [35S]-GTPγS response” value (“Effect of YM-254890 on agonist” below) is “had no effect”.

As to `N[C@@H](Cc1c[nH]c2ccccc12)C(=O)O` [L-Trp, L-tryptophan], the EC50 is greater than 3160 µM at MC4R (setting [7]); greater than 3160 µM at MC4R + Gα16 (setting [8]); 30 to 300 µM on GPR139 [6]; 204 µM at GPR139 [3] (setting [9]); greater than 3160 µM on MC3R (setting [10]); 427 µM on GPR139 [5]. The “Response in a cAMP assay” value on GPR139 [4] is “unable to detect a response”. Besides, the “Stimulation of [35S]-GTPγS incorporation” value on GPR139 [5] is “did not stimulate”. In addition, on GPR139 [5], the “Effect of YM-254890 on agonist” value is recorded as “had no effect”.

Regarding `COc1cc(OC)cc(C(=O)NNC(=O)Nc2cccc3ccccc23)c1` [TC-O9311], the EC50 is greater than 10 µM at MC4R; greater than 10 µM on MC4R + Gα16; 0.0776 µM on GPR139 [3]; greater than 10 µM on MC3R; 0.178 µM on GPR139 [5]. The cAMP response result on GPR139 [2] was “unable to induce or inhibit a cAMP response”. For the same molecule, the “Response in a cAMP assay” value at GPR139 [4] was “unable to detect a response”. Further, the “Stimulation of [35S]-GTPγS incorporation” value at GPR139 [5] is given as “did not stimulate”. The “Effect of YM-254890 on agonist” value at GPR139 [5] is reported as “had no effect”.
